Laboratory results from patent US20240245694A1, “Tricyclic Compounds and their Uses” (Novartis AG, priority 2022, published 2024).

What was measured:
[1] = molecular target: WRN helicase (core helicase motif aa N517-P1238) (Homo sapiens (Human), UniProt Q14191); test: WRN ATPase assay (ADP-Glo), DNA dependent ATP hydrolysis; assay type: biochemical; conditions: 3 hours pre-incubation, 300 micromolar ATP, FLAP26 ssDNA; geometric means of at least 2 determinations
Outline: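 Uses the WRN core helicase (aa N517-P1238) with single-strand 45-mer FLAP26 DNA in Tris pH 7.5, MgCl2, NaCl, BSA and pluronic buffer. Compound was pre-incubated 3 h with enzyme and ATP; reaction then run with 10 nM WRN, 0.2 nM FLAP26 and 300 µM ATP for 30 min at room temperature. ADP quantified by ADP-Glo luminescence; IC50 from duplicate 4-parameter fits, geometric mean of ≥2 runs.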

[2] = Storage stability of the solid at RT; assay type: physicochemical; conditions: stored at RT under ambient atmosphere for several months; degradation product Example 25
From the text: 2.60 g (3.51 mmol) of Example 21A (7R,9R)—N-(2-chloro-4-(trifluoromethyl)phenyl)-2-(3,6-dihydro-2H-pyran-4-yl)-6-((1S,6S)-5-(5-hydroxy-6-methylpyrimidine-4-carbonyl)-2,5-diazabicyclo[4.2.0]octan-2-yl)-7-methyl-5-oxo-5,7,8,9-tetrahydropyrrolo[1,2-c][1,2,4]triazolo[1,5-a]pyrimidine-9-carboxamide was stored at RT under ambient atmosphere for several months, by which the purity decreased to 86%. The degradation product title compound Example 25 was isolated by column chromatography (RediSep Column: Silica 80 g, eluent DCM:MeOH 100:0 to 90:10). The product containing fractions were combined and concentrated under reduced pressure to give a yellow foam. This foam was further purified by chiral SFC (instrument: Waters Prep SFC100-MS; column: Chiralpak IB-N 250 mm×30 mm 5 μm; eluent: A: 55% MeOH+0.1% NH3, B: 45% scCO2; flow rate: 78.0 mL/min; detection: DAD; injection volume: 1.1 mL; gradient: isocratic A: 55%, B: 45%).

Sequence of WRN helicase (core helicase motif aa N517-P1238) (Q14191 517-1238): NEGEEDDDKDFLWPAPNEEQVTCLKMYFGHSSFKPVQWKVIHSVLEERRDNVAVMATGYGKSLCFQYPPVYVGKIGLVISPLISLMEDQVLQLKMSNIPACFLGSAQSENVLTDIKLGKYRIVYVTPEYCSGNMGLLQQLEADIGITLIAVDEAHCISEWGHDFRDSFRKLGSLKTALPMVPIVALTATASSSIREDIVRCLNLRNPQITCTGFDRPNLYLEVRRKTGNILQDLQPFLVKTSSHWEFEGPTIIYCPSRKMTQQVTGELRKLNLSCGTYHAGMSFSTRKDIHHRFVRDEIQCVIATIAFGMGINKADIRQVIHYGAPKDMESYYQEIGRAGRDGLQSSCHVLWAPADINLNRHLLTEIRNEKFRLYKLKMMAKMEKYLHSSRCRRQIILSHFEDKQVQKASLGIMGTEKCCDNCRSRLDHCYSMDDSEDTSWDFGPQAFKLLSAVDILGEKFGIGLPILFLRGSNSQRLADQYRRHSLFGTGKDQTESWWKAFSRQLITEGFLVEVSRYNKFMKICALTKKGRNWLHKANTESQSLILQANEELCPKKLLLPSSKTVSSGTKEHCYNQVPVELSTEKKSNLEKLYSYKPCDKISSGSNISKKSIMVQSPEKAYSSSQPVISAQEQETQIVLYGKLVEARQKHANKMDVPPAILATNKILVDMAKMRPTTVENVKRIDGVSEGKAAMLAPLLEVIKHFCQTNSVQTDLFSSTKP

SMILES | IC50 [1] [µM] | purity after storage [2] [%]
Cc1ncnc(C(=O)N2CCN(c3c4n(c5nc(C6=CCOCC6)nn5c3=O)[C@@H](C(=O)Nc3ccc(C(F)(F)F)cc3Cl)C[C@H]4C)C[C@H]2C)c1O [Example 18A, (7R,9R)—N-(2-chloro-4-(trifluoromethyl)phenyl)-2-(3,6-dihydro-2H-pyran-4-yl)-6-((R)-4-(5-hydroxy-6-methylpyrimidine-4-carbonyl)-3-methylpiperazin-1-yl)-7-methyl-5-oxo-5,7,8,9-tetrahydropyrrolo[1,2-c][1,2,4]triazolo[1,5-a]pyrimidine-9-carboxamide] | 0.05 | 
Cc1ncnc(C(=O)N2CCN(c3c4n(c5nc(C6=CCOCC6)nn5c3=O)[C@@H](C(=O)Nc3ccc(C(F)(F)F)cc3Cl)C[C@H]4C)[C@H]3CC[C@@H]32)c1O [Example 21A, (7R,9R)—N-(2-chloro-4-(trifluoromethyl)phenyl)-2-(3,6-dihydro-2H-pyran-4-yl)-6-((1S,6S)-5-(5-hydroxy-6-methylpyrimidine-4-carbonyl)-2,5-diazabicyclo[4.2.0]octan-2-yl)-7-methyl-5-oxo-5,7,8,9-tetrahydropyrrolo[1,2-c][1,2,4]triazolo[1,5-a]pyrimidine-9-carboxamide] | 0.03 | 86
